Patent US9326506B2, “Preparation method, agricultural composition and applications of natural brassinolide analogs” (CHENGDU NEWSUN CROPSCIENCE CO., LTD, priority 2012, dated 2016)

Test system: rice
Experiment: Low temperature assay on rice seedlings
Type: in vivo
In short: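 Nine-day-old etiolated rice seedlings (grown on water at 30 °C±2 °C, dark) immersed in brassinolide analogues at 1–0.0001 mg/L or pure water, held at 1–5 °C for 24 hr. Plant height, leaf area, root weight read at 3, 6, 9, 12 days; leaf and tiller number at 12 days.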

Q: `CC(C)[C@H](C)[C@@H](O)[C@H](O)[C@@H](C)[C@H]1CCC2C3COC(=O)C4C[C@H](O)[C@H](O)C[C@]4(C)C3CC[C@@]21C` (stereo partly shown) [BR1] was tested. Which Area of leaf (0.001 mg/l, 2 °C, 6 days) did it give?
A: 11.8 cm^2

Q: And the Height (0.001 mg/l, 2 °C, 6 days)?
A: 7.1 cm

Q: What about the Weight of root (0.001 mg/l, 2 °C, 6 days) of the same compound?
A: 3.0 g

Q: What about the Area of leaf (0.001 mg/l, 2 °C, 9 days) of the same compound?
A: 12.6 cm^2

Q: What about the Height (0.001 mg/l, 2 °C, 9 days) of the same compound?
A: 7.2 cm

Q: What about the Weight of root (0.001 mg/l, 2 °C, 9 days) of the same compound?
A: 3.2 g

Q: What about the Area of leaf (0.001 mg/l, 2 °C, 12 days) of the same compound?
A: 13.1 cm^2

Q: What about the Height (0.001 mg/l, 2 °C, 12 days) of the same compound?
A: 7.3 cm

Q: And the Number of leaf (0.001 mg/l, 2 °C, 12 days)?
A: 3

Q: And the Number of tiller (0.001 mg/l, 2 °C, 12 days)?
A: 3

Q: What about the Weight of root (0.001 mg/l, 2 °C, 12 days) of the same compound?
A: 3.9 g

Q: And the Area of leaf (0.001 mg/l, 3 °C, 3 days)?
A: 10.4 cm^2

Q: What about the Height (0.001 mg/l, 3 °C, 3 days) of the same compound?
A: 7 cm

Q: What about the Weight of root (0.001 mg/l, 3 °C, 3 days) of the same compound?
A: 2.5 g

Q: What about the Area of leaf (0.001 mg/l, 3 °C, 6 days) of the same compound?
A: 12 cm^2

Q: What about the Height (0.001 mg/l, 3 °C, 6 days) of the same compound?
A: 7.1 cm

Q: What about the Weight of root (0.001 mg/l, 3 °C, 6 days) of the same compound?
A: 2.6 g

Q: And the Area of leaf (0.001 mg/l, 3 °C, 9 days)?
A: 12.6 cm^2

Q: And the Height (0.001 mg/l, 3 °C, 9 days)?
A: 7.4 cm

Q: What about the Weight of root (0.001 mg/l, 3 °C, 9 days) of the same compound?
A: 2.9 g

Q: And the Area of leaf (0.001 mg/l, 3 °C, 12 days)?
A: 13.2 cm^2

Q: And the Height (0.001 mg/l, 3 °C, 12 days)?
A: 7.3 cm

Q: And the Number of leaf (0.001 mg/l, 3 °C, 12 days)?
A: 3

Q: What about the Number of tiller (0.001 mg/l, 3 °C, 12 days) of the same compound?
A: 2

Q: And the Weight of root (0.001 mg/l, 3 °C, 12 days)?
A: 2.9 g

Q: What about the Area of leaf (0.001 mg/l, 4 °C, 3 days) of the same compound?
A: 10.6 cm^2

Q: And the Height (0.001 mg/l, 4 °C, 3 days)?
A: 7.1 cm

Q: And the Weight of root (0.001 mg/l, 4 °C, 3 days)?
A: 2.5 g

Q: What about the Area of leaf (0.001 mg/l, 4 °C, 6 days) of the same compound?
A: 12.4 cm^2

Q: And the Height (0.001 mg/l, 4 °C, 6 days)?
A: 7.3 cm

Q: And the Weight of root (0.001 mg/l, 4 °C, 6 days)?
A: 2.6 g

Q: And the Area of leaf (0.001 mg/l, 4 °C, 9 days)?
A: 13.1 cm^2

Q: What about the Height (0.001 mg/l, 4 °C, 9 days) of the same compound?
A: 7.5 cm

Q: And the Weight of root (0.001 mg/l, 4 °C, 9 days)?
A: 2.9 g

Q: What about the Area of leaf (0.001 mg/l, 4 °C, 12 days) of the same compound?
A: 13.5 cm^2

Q: What about the Height (0.001 mg/l, 4 °C, 12 days) of the same compound?
A: 7.7 cm

Q: And the Number of leaf (0.001 mg/l, 4 °C, 12 days)?
A: 3

Q: What about the Number of tiller (0.001 mg/l, 4 °C, 12 days) of the same compound?
A: 2

Q: And the Weight of root (0.001 mg/l, 4 °C, 12 days)?
A: 2.9 g

Q: What about the Area of leaf (0.001 mg/l, 5 °C, 3 days) of the same compound?
A: 10.7 cm^2

Q: What about the Height (0.001 mg/l, 5 °C, 3 days) of the same compound?
A: 7.5 cm

Q: And the Weight of root (0.001 mg/l, 5 °C, 3 days)?
A: 2.8 g

Q: And the Area of leaf (0.001 mg/l, 5 °C, 6 days)?
A: 14.6 cm^2

Q: And the Height (0.001 mg/l, 5 °C, 6 days)?
A: 7.7 cm

Q: What about the Weight of root (0.001 mg/l, 5 °C, 6 days) of the same compound?
A: 2.9 g

Q: What about the Area of leaf (0.001 mg/l, 5 °C, 9 days) of the same compound?
A: 16.4 cm^2

Q: And the Height (0.001 mg/l, 5 °C, 9 days)?
A: 7.9 cm

Q: What about the Weight of root (0.001 mg/l, 5 °C, 9 days) of the same compound?
A: 3.0 g

Q: And the Area of leaf (0.001 mg/l, 5 °C, 12 days)?
A: 17 cm^2

Q: And the Height (0.001 mg/l, 5 °C, 12 days)?
A: 8.2 cm

Q: What about the Number of leaf (0.001 mg/l, 5 °C, 12 days) of the same compound?
A: 3

Q: What about the Number of tiller (0.001 mg/l, 5 °C, 12 days) of the same compound?
A: 3

Q: What about the Weight of root (0.001 mg/l, 5 °C, 12 days) of the same compound?
A: 3.7 g

Q: And the Area of leaf (0.01 mg/l, 1 °C, 3 days)?
A: 10.1 cm^2

Q: What about the Height (0.01 mg/l, 1 °C, 3 days) of the same compound?
A: 6.9 cm

Q: What about the Weight of root (0.01 mg/l, 1 °C, 3 days) of the same compound?
A: 2.8 g

Q: And the Area of leaf (0.01 mg/l, 1 °C, 6 days)?
A: 11.9 cm^2

Q: What about the Height (0.01 mg/l, 1 °C, 6 days) of the same compound?
A: 7.2 cm

Q: And the Weight of root (0.01 mg/l, 1 °C, 6 days)?
A: 3.0 g

Q: And the Area of leaf (0.01 mg/l, 1 °C, 9 days)?
A: 12.9 cm^2

Q: And the Height (0.01 mg/l, 1 °C, 9 days)?
A: 7.3 cm

Q: What about the Weight of root (0.01 mg/l, 1 °C, 9 days) of the same compound?
A: 3.4 g

Q: What about the Area of leaf (0.01 mg/l, 1 °C, 12 days) of the same compound?
A: 13.6 cm^2

Q: And the Height (0.01 mg/l, 1 °C, 12 days)?
A: 7.4 cm

Q: And the Number of leaf (0.01 mg/l, 1 °C, 12 days)?
A: 3

Q: What about the Number of tiller (0.01 mg/l, 1 °C, 12 days) of the same compound?
A: 3

Q: And the Weight of root (0.01 mg/l, 1 °C, 12 days)?
A: 3.9 g

Q: And the Area of leaf (0.01 mg/l, 2 °C, 3 days)?
A: 10.3 cm^2

Q: What about the Height (0.01 mg/l, 2 °C, 3 days) of the same compound?
A: 6.9 cm

Q: And the Weight of root (0.01 mg/l, 2 °C, 3 days)?
A: 2.8 g

Q: And the Area of leaf (0.01 mg/l, 2 °C, 6 days)?
A: 11.8 cm^2

Q: And the Height (0.01 mg/l, 2 °C, 6 days)?
A: 7.2 cm

Q: What about the Weight of root (0.01 mg/l, 2 °C, 6 days) of the same compound?
A: 3.0 g

Q: What about the Area of leaf (0.01 mg/l, 2 °C, 9 days) of the same compound?
A: 12.8 cm^2

Q: What about the Height (0.01 mg/l, 2 °C, 9 days) of the same compound?
A: 7.3 cm

Q: What about the Weight of root (0.01 mg/l, 2 °C, 9 days) of the same compound?
A: 3.1 g

Q: What about the Area of leaf (0.01 mg/l, 2 °C, 12 days) of the same compound?
A: 13.4 cm^2

Q: And the Height (0.01 mg/l, 2 °C, 12 days)?
A: 7.5 cm

Q: And the Number of leaf (0.01 mg/l, 2 °C, 12 days)?
A: 3

Q: What about the Number of tiller (0.01 mg/l, 2 °C, 12 days) of the same compound?
A: 3

Q: And the Weight of root (0.01 mg/l, 2 °C, 12 days)?
A: 3.2 g

Q: And the Area of leaf (0.01 mg/l, 3 °C, 3 days)?
A: 10.4 cm^2

Q: And the Height (0.01 mg/l, 3 °C, 3 days)?
A: 7 cm

Q: And the Weight of root (0.01 mg/l, 3 °C, 3 days)?
A: 2.5 g

Q: And the Area of leaf (0.01 mg/l, 3 °C, 6 days)?
A: 12 cm^2

Q: What about the Height (0.01 mg/l, 3 °C, 6 days) of the same compound?
A: 7.2 cm

Q: What about the Weight of root (0.01 mg/l, 3 °C, 6 days) of the same compound?
A: 2.6 g

Q: And the Area of leaf (0.01 mg/l, 3 °C, 9 days)?
A: 12.6 cm^2
